Measured values reported in patent US20110269790A1, “NOVEL THIENOPYRIDINES AS PHARMACOLOGICALLY ACTIVE AGENTS” (priority 2009, published 2011).

What was measured:
Wistar rats [1] = assay: Freund's complete adjuvant (FCA) induced arthritis; type: in vivo, rat; conditions: BN compounds 100 mg/kg; for % Of inhibition, 5th Day / % Of inhibition, 12th Day / Body weight index, 21st DAY / Paw volume, 5th Day / Paw volume, 12th Day / Paw volume, 18th Day / Paw volume, 21st Day / % Of inhibition, 18th Day: indomethacin 2.5 mg/kg daily; for Body weight index, 21st DAY / Body weight index, 1st DAY: FCA study; for Paw volume, 5th Day / Paw volume, 12th Day / Paw volume, 18th Day / Paw volume, 21st Day: in mL (unit assumed); for Body weight index, 1st DAY: indomethacin 2.5 mg/kg; for Total WBC count: termination day, FCA model, Indomethacin 2.5 mg/kg
Procedure: Induction of Arthritis: Arthritis was induced by injecting Freund's complete adjuvant (FCA. Required quantity of FCA was weighed and suspension made with paraffin oil (DIFCO Laboratories) and administered at dose of 0.5 mg/rat in subplantar region of the right hind paw. After 7 days, a booster injection was given to all animals to hind paws.
Experimental Design Animals were divided into 6 groups of 6 rats each and were designated as:
Group I—Normal Control; Group II—Arthritic control; Group III—Arthritic rats administered with Synthetic compound BN-4; Group IV—arthritic rats administered with compound BN-14; Group V—arthritic rats administered with BN-16; Group VI—arthritic rats administered with standard drug indomethacin. Administration of test compounds and indomethacin started on the same day of adjuvant injection at the dose of 100 and 2.5 mg/kg respectively. The test and indomethacin doses continued up to 21 days in FCA induced model and 24 days in collagen induced model. During the study period the paw volumes were measured on 5th, 12th, 18th and 21 st days and the weight of the animals was also recorded at different time intervals. At each time point the percentage of inhibition of paw volume was calculated with reference to mean paw volume of control group In FCA model, animals were sacrificed on 21st day by cervical dislocation. Before sacrificing the animals, blood was collected and used for estimation of total leukocyte count, TNF-α and IL-1β.
Clinical Assessment of Adjuvant arthritis: Rats were examined for visual appearance of arthritis and the lesion of erythema and inflammation of periarticular tissues on 14th day, 18th day and on 21st day. Arthritis scoring scale as follows:
2=Mild swelling and erythema of the limb 3=Gross swelling and erythema of the limb 4=Gross deformity and inability to use the limb
The arthritis score of each rat was the sum of the scores of both hind limbs and maximum score was being 8 for each rat.

rats = assay: Ulcerogenic assay; type: in vivo, rat; conditions: BN compounds 200 mg/kg oral, Indomethacin 30 mg/kg; for Ulcer Score: arbitrary scale 0 (no lesions) to 4 (mucosa full of lesions); for Ulcer Incidence: fasted rats, six hours after dosing, n=4
Procedure: The method of Cashin et al., (1979) was employed. Food was withheld from the animals for 18 hours prior to the experiment. The fasted animals (n=4) received the compounds BN-4, BN-14 and BN-16 as gum acacia suspension by oral route at the dose of 100,200 mg/kg. Indomethacin control animals received the drug at the dose of 30 mg/kg. Six hours later, rats were killed and the stomachs removed and open along the lesser curvature. The opened stomach was washed with normal saline and observed for ulceration. Lesions on the mucosal surface was scored according to arbitrary scale: 0 No lesion; 0.5=hyperemia; 1=one or two lesions; 2=severe lesions; 3=very severe lesions; 4=Mucosal full of lesions (Bani et al., 2000). […] But indomethacin group animals show severe ulceration in stomach portion. More importantly, gastric ulcer, which is a common side effect of NSAIDS, was totally absent in stomach of compound treated rat group. Since enhanced leukotrine production plays a role in development of gastrointestinal damage from cyclooxygenase inhibition by NSAIDS (Rainsford et al., 1993; Gyomber et al., 1996) and all the compounds have shown potent inhibitory action on 5-LOX inhibition (Arachidonic induced paw edema model) along with cox inhibition (Carrageenan induced paw edema model), the gastric ulcer sparing effect of compounds may be partly due to their effect on 5-LOX inhibition.

Wistar rats [2] = assay: Dextran induced rat paw edema model; type: in vivo; conditions: 3 hrs after Dextran
Procedure: Anti-inflammatory activity of test compounds was evaluated in Wistar rats employing method of Winter et al (1963) and Diwan et al (1989). Over night fasted rats were grouped into different test groups and standard group consisting 6 animals in each group. Test compounds were administered orally one hour before dextran challenge as gum acacia suspension. Animals in the standard group received Indomethacin at dose of 10 mg/kg. After one hour dextran was injected into the right hind paw by sub plantar route. A zero hour paw volume was measured for the rats using digital plethysmometer (Ugo Basile, Italy) before the administration of Dextran for all groups. Paw volumes were again measured 3 hrs after the challenge of Dextran. The percent inhibition of paw volume for each rat in treated groups was calculated by comparing with mean paw volume of control group and expressed as mean (±SE) percent inhibition of paw volume for each test group.

TNF-α = TNF-α in paw tissue, collagen induced arthritis; type: in vivo, rat; conditions: collagen induced study, day 24, 100 mg/kg/day
Description: It is believed that these proinflammatory cytokines help to propagate a local or systemic inflammatory process, and to induce biosynthesis and secretion of metalloproteinases (MMPs) and osteoclasts that critically contribute to degradation of extracellular matrix and erosion of bone respectively (Burger et al., 1998; Gravallese and Goldring, 2000; Smolen and Steiner, 2003).

Nitric oxide = Nitric oxide (nitrite, Griess) estimation in LPS treated RAW 264.7 macrophages; type: cell-based, mouse; conditions: 24 hrs, different concentrations, vs LPS treated control
Procedure: Cell Culture and Treatment: The RAW 264.7 (mouse macrophages, national center for cellular sciences) cells were grown in plastic T-25 culture flask in Dulbeccos modified eagles medium (DMEM) without phenol red supplemented with 10% heat activated serum (heating at 57° C. for 30 minutes, 100 μg per ml penicillin, 200 μg per ml streptomycin, 2 mmol L-glutamine, 1% antibiotic/Anti mycotic solution (GIBCO/SRL) under 5% co2 with 85% relative humidity at 37° C. After 2-3 days cells were removed from the culture flask by tripsinizing the cells with Trypsin EDTA solution. Cell count and viability was performed using a standard Trypan blue dye exclusion method. The cell concentration was adjusted to 1×10^5 cells per ml in each well with the same media in the 12 well plates. After 24 hrs incubation the media was removed from each well replaced with a fresh one containing different concentrations (50 μg, 25 μg, 12.5 μg) of the synthetic compounds BN-4, BN-14 and BN-16 along with 10 μg/ml LPS, where as normal control (PBS) and positive controls (Dexa, Roli) LPS (10 μg/ml), were added. 200 μl of media from each well was collected at 6 hrs for the estimation of TNF-α and after 24 hrs for Nitric Oxide respectively. The adherent cells, which remained after removing the media was subjected to […] for determining the cytotoxicity of compounds at selected concentrations
Measurement of Nitrite: For determination of nitric oxide concentration, the stable conversion product of nitric oxide, nitrite (NO^2−) was measured using the Griess reagent (Chi et, al., 2001). After 24 hrs incubation a volume of 100 μl of supernatant from each well of cell culture plates was transferred to 96 well micro plate and equal volume of Griess reagent (1% sulphanilamide, 0.1% N-(1-naphthyl ethylene diamine hydrochloride), 2.5% H3PO4) was then added to the supernatant at room temperature. The absorbance at 570 nm was determined in multi detection Microplate reader after 10 min. Nitric oxide concentration was calculated using standard curve.

With `Nc1c2c(nc3sc4c(c13)CCC4)CCCC2` [BN-14, 2,3,6,7,8,9-Hexahydro-1H-cyclopenta[4,5]thieno[2,3-b]quinolin-10-amine] the “% Of inhibition, 5th Day” value (Wistar rats [1]) was 19.47 ± 1.38 %, the “% Of inhibition, 12th Day” value (Wistar rats [1]) was 37.90 ± 4.12 % and the “Body weight index, 21st DAY” value (Wistar rats [1]) was 201.51 ± 6.61. The “Paw volume, 5th Day” value (Wistar rats [1]) was 1.92 ± 0.03, the “Paw volume, 12th Day” value (Wistar rats [1]) was 1.54 ± 0.10 and the “Paw volume, 18th Day” value (Wistar rats [1]) was 1.51 ± 0.14. The “Paw volume, 21st Day” value (Wistar rats [1]) was 1.40 ± 0.02, the “Body weight index, 1st DAY” value (Wistar rats [1]) was 158.02 ± 2.51 and the “Total WBC count” value (Wistar rats [1]) was 19.70±0.66. The “Ulcer Score” value (rats) was 0.37 ± 0.10, the “Ulcer Incidence” value (rats) was “¼” and the “% Inhibition” value (Wistar rats [2]; 50 mg/kg oral) was 21.29 ± 4.69%. For the same compound, the “Percentage Swelling (50 mg/kg)” value (Wistar rats [2]; 50 mg/kg oral) was 65.36 ± 2.91a %, the “% Inhibition” value (Wistar rats [2]; 100 mg/kg oral) was 24.83 ± 0.47% and the “Percentage Swelling (100 mg/kg)” value (Wistar rats [2]; 100 mg/kg oral) was 41.63 ± 2.78 %. For the same compound, the “% Inhibition” value (Wistar rats [2]; 200 mg/kg oral) was 38.54 ± 4.26%, the “Percentage Swelling (200 mg/kg)” value (Wistar rats [2]; 200 mg/kg oral) was 36.09 ± 2.79 % and the “Inhibition of TNF-α in paw tissues” value (TNF-α) was “more significant inhibition (p<0.01)”. For the same compound, the “Release of NO from murine macrophage cell line” value (shortened to “Release of NO”) (Nitric oxide) was “significantly (p<0.01) suppressed”.

For `Nc1c2c(nc3sc4c(c13)CCC4)CCCCC2` [BN-16, 1,2,3,6,7,8,9,10-Octahydrocyclohepta[b]cyclopenta[4,5]thieno[3,2-e]pyridine-11-amine], the “% Of inhibition, 5th Day” value (Wistar rats [1]) was 23.95 ± 4.49 %, the “% Of inhibition, 12th Day” value (Wistar rats [1]) was 39.11 ± 1.68 % and the “% Of inhibition, 18th Day” value (Wistar rats [1]) was 37.53 ± 09.04 %. The “Body weight index, 21st DAY” value (Wistar rats [1]) was 206.38 ± 4.76, the “Paw volume, 5th Day” value (Wistar rats [1]) was 1.81 ± 0.11 and the “Paw volume, 12th Day” value (Wistar rats [1]) was 1.51 ± 0.10. The “Paw volume, 18th Day” value (Wistar rats [1]) was 1.64 ± 0.13, the “Paw volume, 21st Day” value (Wistar rats [1]) was 1.59 ± 0.09 and the “Body weight index, 1st DAY” value (Wistar rats [1]) was 157.85 ± 2.08. The “Total WBC count” value (Wistar rats [1]) was 17.3±1.63, the “Ulcer Score” value (rats) was 0.25 ± 0.12 and the “Ulcer Incidence” value (rats) was 0/4. The “% Inhibition” value (Wistar rats [2]; 50 mg/kg oral) was 18.30 ± 3.25%, the “Percentage Swelling (50 mg/kg)” value (Wistar rats [2]; 50 mg/kg oral) was 61.80 ± 1.18a % and the “% Inhibition” value (Wistar rats [2]; 100 mg/kg oral) was 30.90 ± 4.32%. For the same compound, the “Percentage Swelling (100 mg/kg)” value (Wistar rats [2]; 100 mg/kg oral) was 40.09 ± 4.24 %, the “% Inhibition” value (Wistar rats [2]; 200 mg/kg oral) was 41.00 ± 3.86% and the “Percentage Swelling (200 mg/kg)” value (Wistar rats [2]; 200 mg/kg oral) was 31.85 ± 2.09 %. For the same compound, the “Inhibition of TNF-α in paw tissues” value (TNF-α) was “moderate inhibition (p<0.05)” and the “Release of NO” value (Nitric oxide) was “significantly (p<0.01) suppressed”.

`COc1ccc2c(c1)c(CC(=O)O)c(C)n2C(=O)c1ccc(Cl)cc1` [Indomethacin, reference compound] was tested, and the “% Of inhibition, 5th Day” value (Wistar rats [1]) was 37.25 ± 2.36 %, the “% Of inhibition, 12th Day” value (Wistar rats [1]) was 45.43 ± 3.56 % and the “% Of inhibition, 18th Day” value (Wistar rats [1]) was 45.80 ± 6.09%. For the same compound, the “Body weight index, 21st DAY” value (Wistar rats [1]) was 182.68 ± 4.91, the “Paw volume, 5th Day” value (Wistar rats [1]) was 1.49 ± 0.06 and the “Paw volume, 12th Day” value (Wistar rats [1]) was 1.35 ± 0.09. For the same compound, the “Paw volume, 18th Day” value (Wistar rats [1]) was 1.42 ± 0.02, the “Paw volume, 21st Day” value (Wistar rats [1]) was 1.43 ± 0.08 and the “Body weight index, 1st DAY” value (Wistar rats [1]) was 157.85 ± 2.08. The “Total WBC count” value (Wistar rats [1]) was 20.67±0.59, the “Ulcer Score” value (rats) was 2.25 ± 0.41 and the “Ulcer Incidence” value (rats) was 4/4. For the same compound, the “Inhibition of TNF-α in paw tissues” value (TNF-α) was “moderate inhibition (p<0.05)”.

For `Cc1sc2nc3c(c(N)c2c1C)CCCCC3` [BN-4, 2,3-dimethyl-6,7,8,9-tetrahydro-5H-cyclohepta[b]thieno[3,2-e]pyridin-4-amine], the “% Of inhibition, 5th Day” value (Wistar rats [1]) was 36.41 ± 3.84 %, the “% Of inhibition, 12th Day” value (Wistar rats [1]) was 42.88 ± 8.45 % and the “% Of inhibition, 18th Day” value (Wistar rats [1]) was 40.71 ± 7.59 %. The “Body weight index, 21st DAY” value (Wistar rats [1]) was 199.87 ± 4.76, the “Paw volume, 5th Day” value (Wistar rats [1]) was 1.51 ± 0.09 and the “Paw volume, 12th Day” value (Wistar rats [1]) was 1.42 ± 0.21. For the same compound, the “Paw volume, 18th Day” value (Wistar rats [1]) was 1.55 ± 0.20, the “Paw volume, 21st Day” value (Wistar rats [1]) was 1.63 ± 0.12 and the “Body weight index, 1st DAY” value (Wistar rats [1]) was 155.15 ± 3.1. For the same compound, the “Total WBC count” value (Wistar rats [1]) was 18.53±1.36, the “% Inhibition” value (Wistar rats [2]; 50 mg/kg oral) was 12.17 ± 1.14% and the “Percentage Swelling (50 mg/kg)” value (Wistar rats [2]; 50 mg/kg oral) was 69.96 ± 4.06 %. The “% Inhibition” value (Wistar rats [2]; 100 mg/kg oral) was 13.57 ± 1.71%, the “Percentage Swelling (100 mg/kg)” value (Wistar rats [2]; 100 mg/kg oral) was 50.01 ± 1.09 % and the “% Inhibition” value (Wistar rats [2]; 200 mg/kg oral) was 32.71 ± 4.45%. For the same compound, the “Percentage Swelling (200 mg/kg)” value (Wistar rats [2]; 200 mg/kg oral) was 38.52 ± 2.60 %, the “Inhibition of TNF-α in paw tissues” value (TNF-α) was “more significant inhibition (p<0.01)” and the “Release of NO” value (Nitric oxide) was “significantly (p<0.01) suppressed”.
